Measured values reported in patent publication US12612380B2, “Non-lysosomal glucosylceramidase inhibitors and uses thereof” (ALECTOS THERAPEUTICS INC., priority 2019, dated 2026).

Molecular target: T1, GBA2 (Homo sapiens, UniProt Q9HCG7)
T1 sequence (Q9HCG7 1-927): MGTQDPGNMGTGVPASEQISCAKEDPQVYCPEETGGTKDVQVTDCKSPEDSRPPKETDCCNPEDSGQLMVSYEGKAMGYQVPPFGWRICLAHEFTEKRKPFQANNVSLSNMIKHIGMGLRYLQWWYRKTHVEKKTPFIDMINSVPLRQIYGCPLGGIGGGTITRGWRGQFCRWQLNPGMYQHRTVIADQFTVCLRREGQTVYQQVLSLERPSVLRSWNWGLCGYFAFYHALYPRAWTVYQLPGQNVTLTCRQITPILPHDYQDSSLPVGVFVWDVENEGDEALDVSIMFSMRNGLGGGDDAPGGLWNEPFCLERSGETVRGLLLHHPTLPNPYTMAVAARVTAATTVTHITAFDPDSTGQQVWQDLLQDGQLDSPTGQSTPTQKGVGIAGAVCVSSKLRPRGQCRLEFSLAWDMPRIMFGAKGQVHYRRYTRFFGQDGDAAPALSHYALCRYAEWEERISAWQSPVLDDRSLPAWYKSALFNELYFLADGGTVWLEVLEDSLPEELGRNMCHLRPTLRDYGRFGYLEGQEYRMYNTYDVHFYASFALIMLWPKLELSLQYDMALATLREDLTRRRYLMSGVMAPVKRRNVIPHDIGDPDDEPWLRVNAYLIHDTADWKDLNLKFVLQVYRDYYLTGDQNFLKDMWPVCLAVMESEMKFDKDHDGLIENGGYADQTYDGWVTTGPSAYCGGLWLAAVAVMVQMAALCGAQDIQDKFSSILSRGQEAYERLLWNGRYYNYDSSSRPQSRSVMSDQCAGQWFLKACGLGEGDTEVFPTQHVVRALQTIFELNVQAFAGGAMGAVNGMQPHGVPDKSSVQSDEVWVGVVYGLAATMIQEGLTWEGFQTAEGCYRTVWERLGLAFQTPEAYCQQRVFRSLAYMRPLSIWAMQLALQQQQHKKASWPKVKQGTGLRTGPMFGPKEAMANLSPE
Test: Binding specificity (selectivity) for GBA2 over other enzymes
Assay type: biochemical
Conditions: compared to a suitable reference compound, e.g. NB-DNJ (miglustat) or AMP-DNM
Source text: In some embodiments, one or more of the compounds according to the invention may specifically bind a GBA2. In alternative embodiments, one or more of the compounds according to the invention may specifically bind the active site of a GBA2. […] In alternative embodiments, one or more of the compounds according to the invention may specifically bind the human non-lysosomal glucosylceramidase (GBA2) over the human lysosomal glucosylceramidase (GCase) and/or the human cytosolic glucosylceramidase (GBA3). In alternative embodiments, one or more of the compounds according to the invention may specifically bind the human non-lysosomal glucosylceramidase (GBA2) over the human glucosylceramide synthase (GCS). In alternative embodiments, one or more of the compounds according to the invention may specifically bind the human non-lysosomal glucosylceramidase (GBA2) over an intestinal alpha-glucosidase, where the intestinal alpha-glucosidase may be a sucrase-isomaltase or a maltase-glucoamylase.

Question: Which “binding specificity (IC50 or Ki of other molecule / GBA2)” value does the source give for `C[C@@H]1[C@@H](O)[C@H](O)[C@@H](O)CN1C[C@H]1CC[C@@H](C(C)(C)C)CC1` [Example 9, (2R,3R,4R,5S)-1-(((1s,4S)-4-(tert-butyl)cyclohexyl)methyl)-2-methylpiperidine-3,4,5-triol] here?
Answer: enhanced binding specificity

Question: With `C[C@@H]1[C@@H](O)[C@H](O)[C@@H](O)CN1C[C@H]1CC[C@@H](C(F)(F)F)CC1` [Example 11, (2R,3R,4R,5S)-2-methyl-1-(((1s,4S)-4-(trifluoromethyl)cyclohexyl)methyl)piperidine-3,4,5-triol] as the compound, how does the “binding specificity (IC50 or Ki of other molecule / GBA2)” value read?
Answer: enhanced binding specificity

Question: For `C[C@@H]1[C@@H](O)[C@H](O)[C@@H](O)CN1C[C@H]1CC[C@@H](C(C)(C)F)CC1` [Example 13, (2R,3R,4R,5S)-1-(((1s,4S)-4-(2-fluoropropan-2-yl)cyclohexyl)methyl)-2-methylpiperidine-3,4,5-triol], which “binding specificity (IC50 or Ki of other molecule / GBA2)” value is on record?
Answer: enhanced binding specificity

Question: With `C[C@@H]1[C@@H](O)[C@H](O)[C@@H](O)CN1C[C@H]1CC[C@@H](C2CC2)CC1` [Example 20, (2R,3R,4R,5S)-1-(((1s,4S)-4-cyclopropylcyclohexyl)methyl)-2-methylpiperidine-3,4,5-triol] as the compound, how does the “binding specificity (IC50 or Ki of other molecule / GBA2)” value read?
Answer: enhanced binding specificity

Molecular target: T1, GBA2
Test: Determination of IC50 values for inhibition of GBA2 in cell lysate
Assay type: biochemical
Set-up: host or cells: HEK293T (lentiviral transduction, puromycin selection); used as cellular homogenate
Conditions: not given
Procedure, shortened: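 Homogenate of HEK293T cells stably overexpressing human GBA2 (0.083 mg/mL final), pretreated with 20 μM GCase inhibitor, preincubated 5 min at 37 °C with compound, then reacted 20 min with 250 μM 4-methylumbelliferyl-β-D-glucopyranoside at pH 5.5 (citrate-phosphate, 1% C10E6). Fluorescence read at 365/450 nm after alkaline stop; IC50 from log-inhibitor curve fit.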

Question: How did the IC50 turn out when `O[C@H]1[C@H](O)[C@@H](O)CN(CCc2ccccc2)[C@@H]1CF` [Example 148, (2S,3R,4R,5S)-2-(fluoromethyl)-1-phenethylpiperidine-3,4,5-triol] was run?
Answer: 100 to 1000 nM

Question: Which IC50 does the source give for `O[C@H]1[C@H](O)[C@@H](O)CN(CCc2ccccc2F)[C@@H]1CF` [Example 149, (2S,3R,4R,5S)-2-(fluoromethyl)-1-(2-fluorophenethyl)piperidine-3,4,5-triol] here?
Answer: 100 to 1000 nM

Question: `CC(C)c1cc(F)c(CCN2C[C@H](O)[C@@H](O)[C@H](O)[C@H]2CF)c(F)c1` [Example 150, (2S,3R,4R,5S)-1-(2,6-difluoro-4-isopropylphenethyl)-2-(fluoromethyl)piperidine-3,4,5-triol] was tested. Which IC50 did it give?
Answer: < 100 nM

Question: How did the IC50 turn out when `O[C@H]1[C@H](O)[C@@H](O)CN(CCc2ccc3c(c2)OCCO3)[C@@H]1CF` [Example 153, (2S,3R,4R,5S)-1-(2-(2,3-dihydrobenzo[b][1,4]dioxin-6-yl)ethyl)-2-(fluoromethyl)piperidine-3,4,5-triol] was run?
Answer: < 100 nM

Question: How did the IC50 turn out when `C[C@H]1[C@@H](O)[C@H](O)[C@@H](O)CN1CCc1ccccc1F` [Example 157, (2S,3R,4R,5S)-1-(2-fluorophenethyl)-2-methylpiperidine-3,4,5-triol] was run?
Answer: 1000 to 25000 nM

Question: `CCCCOc1cc(F)c(CCN2C[C@H](O)[C@@H](O)[C@H](O)[C@@H]2C)c(F)c1` [Example 158, (2S,3R,4R,5S)-1-(4-butoxy-2,6-difluorophenethyl)-2-methylpiperidine-3,4,5-triol] was tested. Which IC50 did it give?
Answer: 100 to 1000 nM

Question: `O[C@H]1[C@H](O)[C@H](CF)N(CCc2ccccc2F)C[C@@H]1O` [Example 159, (2R,3R,4R,5S)-2-(fluoromethyl)-1-(2-fluorophenethyl)piperidine-3,4,5-triol] was tested. Which IC50 did it give?
Answer: 1000 to 25000 nM

Question: With `CCCCOc1cc(F)c(CCN2C[C@H](O)[C@@H](O)[C@H](O)[C@@H]2CF)c(F)c1` [Example 160, (2R,3R,4R,5S)-1-(4-butoxy-2,6-difluorophenethyl)-2-(fluoromethyl)piperidine-3,4,5-triol] as the compound, how does the IC50 read?
Answer: 100 to 1000 nM

Same assay, conditions: cellular homogenate of HEK293T cells overexpressing human GBA2, 250 μM 4-methylumbelliferone-β-D glucopyranoside, pH 5.5, 37° C., GCase inhibitor present; read-out: GBA2 IC50

Question: How did the IC50 turn out when `C[C@@H]1[C@@H](O)[C@H](O)[C@@H](O)CN1C[C@H]1CC[C@@H](C(C)(C)C)CC1` [Example 9, (2R,3R,4R,5S)-1-(((1s,4S)-4-(tert-butyl)cyclohexyl)methyl)-2-methylpiperidine-3,4,5-triol] was run?
Answer: < 100 nM

Question: For `C[C@@H]1[C@@H](O)[C@H](O)[C@@H](O)CN1C[C@H]1CC[C@@H](C(F)(F)F)CC1` [Example 11, (2R,3R,4R,5S)-2-methyl-1-(((1s,4S)-4-(trifluoromethyl)cyclohexyl)methyl)piperidine-3,4,5-triol], which IC50 is on record?
Answer: < 100 nM

Question: For `C[C@@H]1[C@@H](O)[C@H](O)[C@@H](O)CN1C[C@H]1CC[C@@H](C(C)(C)F)CC1` [Example 13, (2R,3R,4R,5S)-1-(((1s,4S)-4-(2-fluoropropan-2-yl)cyclohexyl)methyl)-2-methylpiperidine-3,4,5-triol], which IC50 is on record?
Answer: < 100 nM

Question: Which IC50 does the source give for `C[C@@H]1[C@@H](O)[C@H](O)[C@@H](O)CN1C[C@H]1CC[C@@H](C2CC2)CC1` [Example 20, (2R,3R,4R,5S)-1-(((1s,4S)-4-cyclopropylcyclohexyl)methyl)-2-methylpiperidine-3,4,5-triol] here?
Answer: < 100 nM

Question: `C[C@@H]1[C@@H](O)[C@H](O)[C@@H](O)CN1C[C@H]1CCN(c2cncnc2C(F)(F)F)C1` [Example 127, (2R,3R,4R,5S)-2-methyl-1-(((R)-1-(4-(trifluoromethyl)pyrimidin-5-yl)pyrrolidin-3-yl)methyl)piperidine-3,4,5-triol] was tested. Which IC50 did it give?
Answer: < 100 nM

Question: With `C[C@@H]1[C@@H](O)[C@H](O)[C@@H](O)CN1C[C@H]1CCN(c2ccsc2)C1` [Example 128, (2R,3R,4R,5S)-2-methyl-1-(((R)-1-(thiophen-3-yl)pyrrolidin-3-yl)methyl)piperidine-3,4,5-triol] as the compound, how does the IC50 read?
Answer: < 100 nM

Question: Which IC50 does the source give for `C[C@@H]1[C@@H](O)[C@H](O)[C@@H](O)CN1C[C@H]1CCN(C(=O)c2ccc(C(F)(F)F)cc2)C1` [Example 130, (4-(trifluoromethyl)phenyl)((R)-3-(((2R,3R,4R,5S)-3,4,5-trihydroxy-2-methylpiperidin-1-yl)methyl)pyrrolidin-1-yl)methanone] here?
Answer: < 100 nM

Question: How did the IC50 turn out when `C[C@@H]1[C@@H](O)[C@H](O)[C@@H](O)CN1C[C@@H]1CCN(c2ncccc2C(F)(F)F)C1` [Example 132, (2R,3R,4R,5S)-2-methyl-1-(((S)-1-(3-(trifluoromethyl)pyridin-2-yl)pyrrolidin-3-yl)methyl)piperidine-3,4,5-triol] was run?
Answer: < 100 nM

Question: `C[C@@H]1[C@@H](O)[C@H](O)[C@@H](O)CN1C[C@@H]1CCN(c2cnccc2C(F)(F)F)C1` [Example 133, (2R,3R,4R,5S)-2-methyl-1-(((S)-1-(4-(trifluoromethyl)pyridin-3-yl)pyrrolidin-3-yl)methyl)piperidine-3,4,5-triol] was tested. Which IC50 did it give?
Answer: < 100 nM

Question: `C[C@@H]1[C@@H](O)[C@H](O)[C@@H](O)CN1C[C@@H]1CCN(c2cncnc2C(F)(F)F)C1` [Example 134, (2R,3R,4R,5S)-2-methyl-1-(((S)-1-(4-(trifluoromethyl)pyrimidin-5-yl)pyrrolidin-3-yl)methyl)piperidine-3,4,5-triol] was tested. Which IC50 did it give?
Answer: < 100 nM

Question: With `C[C@@H]1[C@@H](O)[C@H](O)[C@@H](O)CN1C[C@@H]1CCN(c2nc(C(F)(F)F)cs2)C1` [Example 135, (2R,3R,4R,5S)-2-methyl-1-(((S)-1-(4-(trifluoromethyl)thiazol-2-yl)pyrrolidin-3-yl)methyl)piperidine-3,4,5-triol] as the compound, how does the IC50 read?
Answer: < 100 nM

Question: `C[C@@H]1[C@@H](O)[C@H](O)[C@@H](O)CN1C[C@@H]1CCCN(c2cccc(C(F)(F)F)n2)C1` [Example 143, (2R,3R,4R,5S)-2-methyl-1-(((S)-1-(6-(trifluoromethyl)pyridin-2-yl)piperidin-3-yl)methyl)piperidine-3,4,5-triol] was tested. Which IC50 did it give?
Answer: < 100 nM

Question: `C[C@@H]1[C@@H](O)[C@H](O)[C@@H](O)CN1C[C@@H]1CCCN(c2nc(C(F)(F)F)cs2)C1` [Example 144, (2R,3R,4R,5S)-2-methyl-1-(((S)-1-(4-(trifluoromethyl)thiazol-2-yl)piperidin-3-yl)methyl)piperidine-3,4,5-triol] was tested. Which IC50 did it give?
Answer: 100 to 1000 nM

Question: With `CC(C)C1CCC(CN2C[C@H](O)[C@@H](O)[C@H](O)[C@H]2CF)CC1` (stereo partly drawn) [Example 145, (2S,3R,4R,5S)-2-(fluoromethyl)-1-((4-isopropylcyclohexyl)methyl)piperidine-3,4,5-triol] as the compound, how does the IC50 read?
Answer: < 100 nM

Question: For `CC(C)(C)C1CCC(CN2C[C@H](O)[C@@H](O)[C@H](O)[C@H]2CF)CC1` (stereo partly drawn) [Example 146, (2S,3R,4R,5S)-1-((4-(tert-butyl)cyclohexyl)methyl)-2-(fluoromethyl)piperidine-3,4,5-triol], which IC50 is on record?
Answer: < 100 nM

Question: How did the IC50 turn out when `O[C@H]1[C@H](O)[C@@H](O)CN(CC2CCN(c3ccccc3)CC2)[C@@H]1CF` [Example 154, (2S,3R,4R,5S)-2-(fluoromethyl)-1-((1-phenylpiperidin-4-yl)methyl)piperidine-3,4,5-triol] was run?
Answer: < 100 nM

Question: Which IC50 does the source give for `O[C@H]1[C@H](O)[C@@H](O)CN(CC2CCN(c3ccc(C(F)(F)F)cc3)CC2)[C@@H]1CF` [Example 155, (2S,3R,4R,5S)-2-(fluoromethyl)-1-((1-(4-(trifluoromethyl)phenyl)piperidin-4-yl)methyl)piperidine-3,4,5-triol] here?
Answer: < 100 nM

Question: Which IC50 does the source give for `O[C@H]1[C@H](O)[C@@H](O)CN(CCc2ccccc2)[C@@H]1C(F)F` [Example 156, (2S,3R,4R,5S)-2-(difluoromethyl)-1-phenethylpiperidine-3,4,5-triol] here?
Answer: 1000 to 25000 nM
